In US12599578B2, “Compositions comprising enzyme-cleavable prodrugs and controlled release nafamostat and methods of use thereof” (Ensysce Biosciences Inc., priority 2021, dated 2026):
Where two headings read alike, the source gives them in different places.

How the values were obtained:
[1] = doses of up to 200 mg KC-8 (80 mg oxycodone); cited from earlier work
[2] = Blood hydromorphone after 1, 3, 6 or 10 pills of PF329 with or without nafamostat in rats; format: in vivo; conditions: rats, 1, 3, 6 or 10 pills of PF329 containing nafamostat (FIG. 5)
From the text: The rat experiments were repeated with a derivative of hydromorphone (referred to herein as PF329), which is another known pain medication. FIGS. 4 and 5 show the blood concentration of active hydromorphone (HM) after the administration of 1, 3, 6, or 10 pills, either without or with nafamostat.

[3] = 200 mg nafamostat; cited from earlier work
[4] = Plasma oxycodone pharmacokinetics after oral KC-8 with or without nafamostat in rats; format: in vivo; conditions: nafamostat co-administered with an oxycodone or hydromorphone derivative
Experimental: The drug nafamostat mesylate was added to the formulations containing the KC-8 oxycodone-derivative. In the examples described herein, the terms “nafamostat mesylate” and “nafamostat” are used interchangeably.
Formulations containing both KC-8 and optionally nafamostat were administered orally to rats. The KC-8 dose was 5 mg/kg and the nafamostat concentration was 0, 0.1, 0.5, or 1 mg/kg. Plasma concentrations of active oxycodone were measured at various time intervals over 24 hours after administration.
In particular, the rats received 50 mg/kg of KC-8 and 0, 1, 5, or 10 mg/kg of nafamostat. With zero nafamostat, blood plasma concentration experienced a maximum of about 22 ng/ml at about 2 hours, wherein the concentration rapidly descended thereafter. In alignment with the data of FIG. 2, higher concentrations of nafamostat reduced the peak concentration to about 3 ng/ml at about 8 hours.

SMILES | safety and tolerability [1] | change of hydromorphone blood concentration on administering more pills [2] | safety and tolerability [3] | effect on maximum concentration of active drug in blood plasma [4]
COc1ccc2c3c1O[C@H]1C(OC(=O)N(C)CC(C)(C)CNC(=O)[C@H](CCCNC(=N)N)NC(=O)CNC(=O)CC(=O)O)=CC[C@@]4(O)[C@@H](C2)N(C)CC[C@]314 [KC-8, N-1-[3-(oxycodone-6-enol-carbonyl-methyl-amino)-2,2-dimethyl-propylamine]-arginine-glycine-malonic acid] | safe and well tolerated | – | – | –
N=C(N)c1ccc2cc(OC(=O)c3ccc(N=C(N)N)cc3)ccc2c1 [nafamostat, 6-carbamimidoylnaphthalen-2-yl 4-(diaminomethyleneamino)benzoate] | – | little increase | safe and well tolerated | significantly reduced the maximum concentration of active drug in blood plasma
